Measurements taken from US9493444B2 (Merck Patent GmbH, priority 2012, dated 2016).

tested on: Wnt pathway (TCF-dependent transcription in HEK293 luciferase reporter cell line with ER-DSH construct); assay: Cellular assay for Wnt pathway activity (luciferase reporter); format: cell-based; conditions: Homo sapiens; Wnt pathway inhibition, HEK293 luciferase reporter cells (ER-DSH, TCF promoter), 24 hours incubation, estrogen-induced
Protocol: 1. Cellular Assay for Wnt Pathway Activity
Compounds were tested for their Wnt pathway inhibitory activities using a luciferase reporter cell based assay. A HEK293 luciferase reporter cell line was used which contained an Estrogen Receptor-Dishevelled (ER-DSH) construct and a T-Cell Factor (TCF) dependent gene promoter luciferase construct.
Compounds, in concentrations from 30 μM down to 1 nM, were incubated for 24 hours on the cells, which were induced for TCF-dependent transcription by the addition of estrogen (10). Luciferase activities were determined using the ONE GLO Luciferase Assay System (Promega) and the ENVISION microplate reader (Perkin Elmer). For analysis, the obtained data were normalized against the untreated vehicle control and fitted for determination of the IC50 values using the Assay Explorer software (Accelrys).

| SMILES | IC50 [nM] |
| --- | --- |
| CC(=O)c1ccc(Oc2cncc(N(C)CCN(C)C(C)=O)n2)cc1 [Compound 125, N-(2-{[6-(4-Acetyl-phenoxy)-pyrazin-2-yl]-methyl-amino}-ethyl)-N-methyl-acetamide] | 200 to 1000 |
| CC(=O)N(C)CCNc1cncc(Oc2ccc(-c3cccnc3)c(F)c2F)n1 [Compound 302, N-{2-[6-(2,3-Difluoro-4-pyridin-3-yl-phenoxy)-pyrazin-2-ylamino]-ethyl}-N-methyl-acetamide] | 1000 to 10000 |
| CC(=O)N(C)CCCc1cncc(Oc2ccc(-c3ccncc3C#N)cc2)n1 [Compound 213, N-(3-{6-[4-(3-Cyano-pyridin-4-yl)-phenoxy]-pyrazin-2-yl}-propyl)-N-methyl-acetamide] | 200 to 1000 |
| CC(=O)N(C)CCN(C)c1cncc(Oc2ccc(-c3ccc([N+](=O)[O-])cn3)cc2)n1 [Compound 198, N-Methyl-N-[2-(methyl-{6-[4-(5-nitro-pyridin-2-yl)-phenoxy]-pyrazin-2-yl}-amino)-ethyl]-acetamide] | < 200 |
| CC(=O)Nc1cccc(-c2ccc(Oc3cncc(N(C)CCN(C)C(C)=O)n3)cc2)n1 [Compound 171, N-[2-({6-[4-(6-Acetylamino-pyridin-2-yl)-phenoxy]-pyrazin-2-yl}-methyl-amino)-ethyl]-N-methyl-acetamide] | < 200 |
| COc1ccc(Oc2cncc(N(C)CCCN(C)C(C)=O)n2)cc1 [Compound 80, N-(3-{[6-(4-Methoxy-phenoxy)-pyrazin-2-yl]-methyl-amino}-propyl)-N-methyl-acetamide] | 1000 to 10000 |
| CC(=O)N(C)CCN(C)c1cncc(Oc2ccc3c(c2)OCO3)n1 [Compound 91, N-(2-{[6-(Benzo[1,3]dioxol-5-yloxy)-pyrazin-2-yl]-methyl-amino}-ethyl)-N-methyl-acetamide] | 200 to 1000 |
| CC(=O)N(C)CCN(C)c1cncc(Oc2ccc(-c3ccncc3C#N)cc2F)n1 [Compound 228, N-[2-({6-[4-(3-Cyano-pyridin-4-yl)-2-fluoro-phenoxy]-pyrazin-2-yl}-methyl-amino)-ethyl]-N-methyl-acetamide] | < 200 |
| CC(=O)N(C)CCN(C)c1cncc(Oc2ccc(Br)cc2)n1 [Compound 37, N-(2-{[6-(4-Bromo-phenoxy)-pyrazin-2-yl]-methyl-amino}-ethyl)-N-methyl-acetamide] | < 200 |
| COc1ccc(-c2ccc(Oc3cncc(N(C)CCN(C)C(C)=O)n3)cc2)nc1 [Compound 163, N-[2-({6-[4-(5-Methoxy-pyridin-2-yl)-phenoxy]-pyrazin-2-yl}-methyl-amino)-ethyl]-N-methyl-acetamide] | < 200 |
| CC(=O)Nc1cccc(-c2ccc(Oc3cncc(CCCN(C)C(C)=O)n3)cc2)n1 [Compound 218, N-(3-{6-[4-(6-Acetylamino-pyridin-2-yl)-phenoxy]-pyrazin-2-yl}-propyl)-N-methyl-acetamide] | 200 to 1000 |
| CC(=O)N(C)CCNc1cncc(Oc2ccc(-c3ccc(CO)nc3)cc2)n1 [Compound 254, N-(2-{6-[4-(6-Hydroxy-methyl-pyridin-3-yl)-phenoxy]-pyrazin-2-ylamino}-ethyl)-N-methyl-acetamide] | 200 to 1000 |
| COc1ccc(-c2ccc(Oc3cncc(N(C)CCN(C)C(C)=O)n3)cc2)cn1 [Compound 184, N-[2-({6-[4-(6-Methoxy-pyridin-3-yl)-phenoxy]-pyrazin-2-yl}-methyl-amino)-ethyl]-N-methyl-acetamide] | < 200 |
| CC(=O)N(C)CCN(C)c1cncc(Oc2ccc(C3CCC(=O)CC3)cc2)n1 [Compound 178, N-Methyl-N-[2-(methyl-{6-[4-(4-oxo-cyclohexyl)-phenoxy]-pyrazin-2-yl}-amino)-ethyl]-acetamide] | < 200 |
| O=C1CCCCN1CCCc1cncc(Oc2ccc(-c3ccc(N4CCOCC4)nc3)cc2)n1 [Compound 25, 1-(3-{6-[4-(6-Morpholin-4-yl-pyridin-3-yl)-phenoxy]-pyrazin-2-yl}-propyl)-piperidin-2-one] | < 200 |
| CC(=O)N(C)CCN(C)c1cncc(Oc2ccc(-c3ccc(CN)nc3)cc2)n1 [Compound 309] | < 200 |
| CC(=O)N(C)CCN(C)c1cncc(Oc2c(F)cc(Br)cc2F)n1 [Compound 113, N-(2-{[6-(4-Bromo-2,6-difluoro-phenoxy)-pyrazin-2-yl]-methyl-amino}-ethyl)-N-methyl-acetamide] | < 200 |
| CC(=O)N(C)CCN(C)c1cncc(Oc2ccc(-c3cnc4ccccc4c3)cc2)n1 [Compound 207, N-Methyl-N-(2-{methyl-[6-(4-quinolin-3-yl-phenoxy)-pyrazin-2-yl]-amino}-ethyl)-acetamide] | 200 to 1000 |
| CC(=O)N(C)CCN(C)c1cncc(Oc2ccc(-c3ccn(C)n3)c(F)c2F)n1 [Compound 256, N-[2-({6-[2,3-Difluoro-4-(1-methyl-1H-pyrazol-3-yl)-phenoxy]-pyrazin-2-yl}-methyl-amino)-ethyl]-N-methyl-acetamide] | 200 to 1000 |
| Nc1cnc(-c2ccc(Oc3cncc(CCCN4CCCCC4=O)n3)cc2)cn1 [Compound 263, 1-(3-{6-[4-(5-Amino-pyrazin-2-yl)-phenoxy]-pyrazin-2-yl}-propyl)-piperidin-2-one] | < 200 |

| SMILES | IC50 [nM] |
| --- | --- |
| CC(=O)N(C)CCN(C)c1cncc(Oc2ccc3c(c2)C(=O)CC3)n1 [Compound 108, N-Methyl-N-(2-{methyl-[6-(3-oxo-indan-5-yloxy)-pyrazin-2-yl]-amino}-ethyl)-acetamide] | 1000 to 10000 |
| CC(=O)N(C)CCN(C)c1cncc(Oc2ccc(-c3ccc(Cl)cc3)c(F)c2F)n1 [Compound 249, N-(2-{[6-(4′-Chloro-2,3-difluoro-biphenyl-4-yloxy)-pyrazin-2-yl]-methyl-amino}-ethyl)-N-methyl-acetamide] | 200 to 1000 |
| CC(=O)N(C)CCN(C)c1cncc(Oc2ccc(F)cc2)n1 [Compound 4, N-(2-{[6-(4-Fluoro-phenoxy)-pyrazin-2-yl]-methyl-amino}-ethyl)-N-methyl-acetamide] | 200 to 1000 |
| CC(=O)N(C)CCN(C)c1cncc(Oc2ccc3cccnc3c2)n1 [Compound 55, N-Methyl-N-(2-{methyl-[6-(quinolin-7-yloxy)-pyrazin-2-yl]-amino}-ethyl)-acetamide] | 1000 to 10000 |
| CC(=O)N(C)CCNc1cncc(Oc2ccc(-c3ccc(C)cn3)cc2)n1 [Compound 19, N-Methyl-N-(2-{6-[4-(5-methyl-pyridin-2-yl)-phenoxy]-pyrazin-2-ylamino}-ethyl)-acetamide] | < 200 |
| CCC(C)(C)c1ccc(Oc2cncc(N(C)CCN(C)C(C)=O)n2)cc1 [Compound 139, N-[2-({6-[4-(1,1-Dimethyl-propyl)-phenoxy]-pyrazin-2-yl}-methyl-amino)-ethyl]-N-methyl-acetamide] | 200 to 1000 |
| COc1ccc(Oc2cncc(NCC3CCCN3C(C)=O)n2)cc1 (stereo not drawn) [Compound 57, 1-(2-{[6-(4-Methoxy-phenoxy)-pyrazin-2-ylamino]-methyl}-pyrrolidin-1-yl)-ethanone] | 1000 to 10000 |
| CC(=O)N(C)CCN(C)c1cncc(Oc2ccc(C(=O)c3ccccc3)cc2)n1 [Compound 147] | 200 to 1000 |
| CN(CCN(C)c1cncc(Oc2ccc3ncccc3c2)n1)C(=O)C(F)(F)F [Compound 74, 2,2,2-Trifluoro-N-methyl-N-(2-{methyl-[6-(quinolin-6-yloxy)-pyrazin-2-yl]-amino}-ethyl)-acetamide] | 1000 to 10000 |
| CC(=O)N(C)CCN(C)c1cncc(Oc2ccc(CCC#N)cc2)n1 [Compound 232, N-[2-({6-[4-(2-Cyano-ethyl)-phenoxy]-pyrazin-2-yl}-methyl-amino)-ethyl]-N-methyl-acetamide] | < 200 |
| Nc1cnc(-c2ccc(Oc3cncc(NCCN4CCCCC4=O)n3)cc2)cn1 [Compound 291, 1-(2-{6-[4-(5-Amino-pyrazin-2-yl)-phenoxy]-pyrazin-2-ylamino}-ethyl)-piperidin-2-one] | < 200 |
| CCN(CCN(C)c1cncc(Oc2ccc(OC)cc2)n1)C(C)=O [Compound 77, N-Ethyl-N-(2-{[6-(4-methoxy-phenoxy)-pyrazin-2-yl]-methyl-amino}-ethyl)-acetamide] | < 200 |
| CNC(=O)CCCN(C)c1cncc(Oc2ccc(F)cc2)n1 [Compound 189, 4-{[6-(4-Fluoro-phenoxy)-pyrazin-2-yl]-methyl-amino}-N-methyl-butyramide] | 1000 to 10000 |
| CNCCN(C)c1cncc(Oc2ccc(-c3cc(C(F)(F)F)ccn3)cc2)n1 [Compound 120, N,N′-Dimethyl-N-{6-[4-(4-trifluoro-methyl-pyridin-2-yl)-phenoxy]-pyrazin-2-yl}-ethane-1,2-diamine] | 1000 to 10000 |
| CC(=O)N(C)CCN(C)c1cncc(Oc2ccc(-c3ncccn3)cc2)n1 [Compound 161, N-Methyl-N-(2-{methyl-[6-(4-pyrimidin-2-yl-phenoxy)-pyrazin-2-yl]-amino}-ethyl)-acetamide] | 200 to 1000 |
| COc1ccc(Oc2cncc(N(C)CCN(C)C(=O)CCC(C)C)n2)cc1 [Compound 64, 4-Methyl-pentanoic acid (2-{[6-(4-methoxy-phenoxy)-pyrazin-2-yl]-methyl-amino}-ethyl)-methyl-amide] | 1000 to 10000 |
| CC(=O)N(C)CCNc1cncc(Oc2ccc(F)cc2)c1 [Compound 315, N-{2-[5-(4-Fluoro-phenoxy)-pyridin-3-ylamino]-ethyl}-N-methyl-acetamide] | ≥ 10000 |
| CC(=O)N(C)CCN(C)c1cncc(Oc2ccc(-c3cccnc3N)cc2)n1 [Compound 177, N-[2-({6-[4-(2-Amino-pyridin-3-yl)-phenoxy]-pyrazin-2-yl}-methyl-amino)-ethyl]-N-methyl-acetamide] | < 200 |
| CC(=O)N(C)CCSc1cncc(Oc2ccc(F)cc2)n1 [Compound 136, N-{2-[6-(4-Fluoro-phenoxy)-pyrazin-2-ylsulfanyl]-ethyl}-N-methyl-acetamide] | < 200 |
